In article PMC7914897, “Cytotoxic Potential of a-Azepano- and 3-Amino-3,4-SeCo-Triterpenoids” (International Journal of Molecular Sciences, 2021):

Columns and labels:
[1] = tested on: Ovarian Cancer subpanel; assay: NCI-60 screen, subpanel; conditions: Homo sapiens; for IC (TGI): 48 h, read-out: TGI MG_MID; for GI50: read-out: GI50 MG_MID
[2] = tested on: Renal Cancer subpanel; assay: NCI-60 screen, subpanel; conditions: Homo sapiens; for IC (TGI): 48 h, read-out: TGI MG_MID; for GI50: read-out: GI50 MG_MID; for CC50: read-out: LC50 MG_MID
[3] = tested on: Prostate cancer subpanel; assay: NCI-60 screen, subpanel; conditions: Homo sapiens; for IC (TGI): 48 h, read-out: TGI MG_MID; for GI50: read-out: GI50 MG_MID
[4] = tested on: A549/ATCC (NSC lung cancer); assay: NCI-60 screen (SRB, 48 h); conditions: Homo sapiens; for GI50: A549
[5] = tested on: EKVX (NSC lung cancer); assay: NCI-60 screen (SRB, 48 h); conditions: Homo sapiens
[6] = tested on: HOP-62 (NSC lung cancer); assay: NCI-60 screen (SRB, 48 h); conditions: Homo sapiens; for GI50: HOP-62
[7] = tested on: HOP-92 (NSC lung cancer); assay: NCI-60 screen (SRB, 48 h); conditions: Homo sapiens; for GI50: HOP-92; for IC (TGI): HOP-92, 48 h, read-out: TGI
[8] = tested on: NCI-H23 (NSC lung cancer); assay: NCI-60 screen (SRB, 48 h); conditions: Homo sapiens; for GI50: NCI-H23; for IC (TGI): NCI-H23, 48 h, read-out: TGI
[9] = tested on: COLO 205 (Colon cancer); assay: NCI-60 screen (SRB, 48 h); conditions: Homo sapiens; for GI50: COLO 205; for IC (TGI): COLO 205, 48 h, read-out: TGI
[10] = tested on: HCT-15 (Colon cancer); assay: NCI-60 screen (SRB, 48 h); conditions: Homo sapiens; for GI50: HCT-15; for IC (TGI): HCT-15, 48 h, read-out: TGI
[11] = tested on: SW-620 (Colon cancer); assay: NCI-60 screen (SRB, 48 h); conditions: Homo sapiens; for GI50: SW-620; for IC (TGI): SW-620, 48 h, read-out: TGI
[12] = tested on: SF-295 (CNS cancer); assay: NCI-60 screen (SRB, 48 h); conditions: Homo sapiens; for GI50: SF-295; for IC (TGI): SF-295, 48 h, read-out: TGI
[13] = tested on: SNB-19 (CNS cancer); assay: NCI-60 screen (SRB, 48 h); conditions: Homo sapiens; for GI50: SNB-19; for IC (TGI): SNB-19, 48 h, read-out: TGI
[14] = tested on: MALME-3M (Melanoma); assay: NCI-60 screen (SRB, 48 h); conditions: Homo sapiens
[15] = tested on: M14 (Melanoma); assay: NCI-60 screen (SRB, 48 h); conditions: for GI50: M14; for IC (TGI): M14, 48 h, read-out: TGI
[16] = tested on: SK-MEL-2 (Melanoma); assay: NCI-60 screen (SRB, 48 h); conditions: Homo sapiens; for GI50: SK-MEL-2; for IC (TGI): SK-MEL-2, 48 h, read-out: TGI; for CC50: SK-MEL-2, read-out: LC50
[17] = tested on: SK-MEL-28 (Melanoma); assay: NCI-60 screen (SRB, 48 h); conditions: Homo sapiens; for GI50: SK-MEL-28; for IC (TGI): SK-MEL-28, 48 h, read-out: TGI
[18] = tested on: UACC-62 (Melanoma); assay: NCI-60 screen (SRB, 48 h); conditions: Homo sapiens; for GI50: UACC-62; for IC (TGI): UACC-62, 48 h, read-out: TGI; for CC50: UACC-62, read-out: LC50
[19] = tested on: OVCAR-8 (Ovarian cancer); assay: NCI-60 screen (SRB, 48 h); conditions: Homo sapiens; for GI50: OVCAR-8
[20] = tested on: NCI/ADR-RES (Ovarian cancer); assay: NCI-60 screen (SRB, 48 h); conditions: Homo sapiens
[21] = tested on: ACHN (Renal cancer); assay: NCI-60 screen (SRB, 48 h); conditions: for GI50 / IC (TGI): Homo sapiens; for IC (TGI): 48 h, read-out: TGI
[22] = tested on: SN12C (Renal cancer); assay: NCI-60 screen (SRB, 48 h); conditions: Homo sapiens; for IC (TGI): 48 h, read-out: TGI
[23] = tested on: UO-31 (Renal cancer); assay: NCI-60 screen (SRB, 48 h); conditions: Homo sapiens; for GI50: UO-31
[24] = tested on: DU-145 (Prostate cancer); assay: NCI-60 screen (SRB, 48 h); conditions: Homo sapiens; for GI50: DU-145; for IC (TGI): DU-145, 48 h, read-out: TGI
[25] = tested on: MCF7 (Breast cancer); assay: NCI-60 screen (SRB, 48 h); conditions: Homo sapiens; for GI50: MCF7; for IC (TGI): MCF7, 48 h, read-out: TGI
[26] = tested on: HS 578T (Breast cancer); assay: NCI-60 screen (SRB, 48 h); conditions: Homo sapiens
[27] = tested on: T-47D (Breast cancer); assay: NCI-60 screen (SRB, 48 h); conditions: Homo sapiens, T47D; for IC (TGI): 48 h, read-out: TGI

C=C(C)[C@@H]1CC[C@]2(C(=O)N[C@H](CO)Cc3ccccc3)CC[C@]3(C)[C@H](CC[C@@H]4[C@@]5(C)CCCNC(C)(C)[C@@H]5CC[C@]43C)[C@@H]12 [Compound 11]
IC (TGI) [1]: 2620 nM
GI50 [1]: 1200 nM
IC (TGI) [2]: 2930 nM
GI50 [2]: 1460 nM
CC50 [2]: 5760 nM
IC (TGI) [3]: 2750 nM
GI50 [3]: 1320 nM
GI50 [4]: 960 nM
IC (TGI) ([4]; A549, 48 h, read-out: TGI): 2450 nM
GI50 [5]: 1730 nM
IC (TGI) ([5]; 48 h, read-out: TGI): 3490 nM
GI50 [6]: 1710 nM
IC (TGI) ([6]; HOP-62, 48 h, read-out: TGI): 3340 nM
GI50 [7]: 1420 nM
IC (TGI) [7]: 3010 nM
CC50 ([7]; HOP-92, read-out: LC50): 6420 nM
GI50 [8]: 1600 nM
IC (TGI) [8]: 3170 nM
GI50 [9]: 1310 nM
IC (TGI) [9]: 2940 nM
GI50 [10]: 970 nM
IC (TGI) [10]: 2320 nM
GI50 [11]: 850 nM
IC (TGI) [11]: 2260 nM
GI50 [12]: 1670 nM
IC (TGI) [12]: 3210 nM
GI50 [13]: 1170 nM
IC (TGI) [13]: 2720 nM
GI50 [14]: 1420 nM
GI50 ([15]; Homo sapiens): 740 nM
IC (TGI) ([15]; Homo sapiens): 2190 nM
GI50 [16]: 1720 nM
IC (TGI) [16]: 3180 nM
CC50 [16]: 5870 nM
GI50 [17]: 1550 nM
IC (TGI) [17]: 3030 nM
GI50 [18]: 1760 nM
IC (TGI) [18]: 3390 nM
CC50 [18]: 6520 nM
GI50 [19]: 1120 nM
IC (TGI) ([19]; OVCAR-8, 48 h, read-out: TGI): 2800 nM
GI50 [20]: 1350 nM
IC (TGI) ([20]; 48 h, read-out: TGI): 3010 nM
Growth % of the Most Sensitive Cell Lines ([21]; 1 dose 10 µM): −95.87%
GI50 [21]: 1710 nM
IC (TGI) [21]: 3160 nM
GI50 [22]: 1810 nM
IC (TGI) [22]: 3550 nM
GI50 [23]: 1500 nM
IC (TGI) ([23]; UO-31, 48 h, read-out: TGI): 2960 nM
GI50 [24]: 1480 nM
IC (TGI) [24]: 2870 nM
GI50 [25]: 490 nM
IC (TGI) [25]: 2060 nM
GI50 [26]: 1610 nM
IC (TGI) ([26]; 48 h, read-out: TGI): 3780 nM
GI50 [27]: 1800 nM
IC (TGI) [27]: 4020 nM

C[C@H]1[C@H](C)CC[C@]2(C(=O)Nc3ccc4ncccc4c3)CC[C@]3(C)C(=CC[C@@H]4[C@@]5(C)CCCNC(C)(C)[C@@H]5CC[C@]43C)[C@H]12 [Compound 14]
IC (TGI) [1]: 3300 nM
GI50 [1]: 1770 nM
CC50 ([1]; read-out: LC50 MG_MID): 6690 nM
IC (TGI) [2]: 3240 nM
GI50 [2]: 1660 nM
CC50 [2]: 5600 nM
IC (TGI) [3]: 3280 nM
GI50 [3]: 1760 nM
GI50 [4]: 1810 nM
GI50 [5]: 1660 nM
GI50 [6]: 1760 nM
GI50 [7]: 1540 nM
IC (TGI) [7]: 3140 nM
GI50 [8]: 1760 nM
IC (TGI) [8]: 3390 nM
GI50 [9]: 1750 nM
IC (TGI) [9]: 3590 nM
GI50 [10]: 1590 nM
IC (TGI) [10]: 3150 nM
GI50 [11]: 1800 nM
IC (TGI) [11]: 3370 nM
CC50 ([11]; SW-620, read-out: LC50): 6310 nM
GI50 [12]: 1650 nM
IC (TGI) [12]: 3170 nM
GI50 [13]: 1850 nM
IC (TGI) [13]: 3400 nM
GI50 [14]: 1660 nM
GI50 ([15]; Homo sapiens): 1940 nM
IC (TGI) ([15]; Homo sapiens): 3590 nM
CC50 ([15]; Homo sapiens, M14, read-out: LC50): 6650 nM
Growth % of the Most Sensitive Cell Lines ([15]; M14, 1 dose 10 µM): −92.02%
GI50 [16]: 1840 nM
IC (TGI) [16]: 3430 nM
CC50 [16]: 6420 nM
GI50 [17]: 1660 nM
IC (TGI) [17]: 3110 nM
GI50 [18]: 1740 nM
IC (TGI) [18]: 3230 nM
CC50 [18]: 6000 nM
GI50 [19]: 1860 nM
GI50 [20]: 1910 nM
GI50 [21]: 1770 nM
IC (TGI) [21]: 3240 nM
GI50 [22]: 1730 nM
IC (TGI) [22]: 3330 nM
GI50 [23]: 1500 nM
GI50 [24]: 1760 nM
IC (TGI) [24]: 3280 nM
GI50 [25]: 1560 nM
IC (TGI) [25]: 3250 nM
GI50 [26]: 1960 nM
GI50 [27]: 1670 nM
IC (TGI) [27]: 3640 nM
